The target of this assay is T1, β-catenin Armadillo repeats domain (Homo sapiens, UniProt P35222).
T1 construct: GST (N, cleaved yes); made in house; host or cells: Escherichia coli BL21(DE3)
T1 sequence (P35222 133-664): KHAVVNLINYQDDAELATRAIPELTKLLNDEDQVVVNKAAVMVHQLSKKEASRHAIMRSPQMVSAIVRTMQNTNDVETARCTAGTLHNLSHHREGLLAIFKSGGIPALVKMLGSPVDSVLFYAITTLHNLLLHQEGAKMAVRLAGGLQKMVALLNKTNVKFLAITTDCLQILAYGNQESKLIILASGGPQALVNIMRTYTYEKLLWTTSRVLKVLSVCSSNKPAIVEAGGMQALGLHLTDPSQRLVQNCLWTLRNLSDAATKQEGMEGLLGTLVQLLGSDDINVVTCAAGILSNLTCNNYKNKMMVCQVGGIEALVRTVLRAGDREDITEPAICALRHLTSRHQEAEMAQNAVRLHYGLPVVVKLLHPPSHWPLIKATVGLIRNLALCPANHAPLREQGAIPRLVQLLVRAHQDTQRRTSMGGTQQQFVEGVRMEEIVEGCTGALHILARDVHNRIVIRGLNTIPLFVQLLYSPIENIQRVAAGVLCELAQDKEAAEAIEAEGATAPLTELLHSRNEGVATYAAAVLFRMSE
Nature of the assay: Surface plasmon resonance binding of 9 to immobilized β-catenin Armadillo repeats domain. The following applies: SPR, 25 °C, analyte 1.95-62.5 nM, 1:1 model; read-out: ka. The protocol:
To collect detailed kinetic data of the binding measured as the rate constants of the association (ka) and dissociation (kd) of the complex, a concentration series of the analyte ranging from 1.95 up to 62.5 nM was injected over the covalently immobilized Armadillo repeats domain onto the sensor chip surface and the interaction between the analyte and the ligand was detected as a measure of the change in mass concentration upon the surface, expressed in resonance units (RUs) and compared to the baseline.
Full kinetic analysis of the binding interaction between 9 when binding to the Armadillo domain is shown in Figure 4, with the calculated binding parameters listed in the bottom table. As evidenced by the sensorgram obtained at different analyte concentrations, the dissociation rate constant of 9 is very slow, thereby resulting in a low nanomolar equilibrium affinity constant (KD) of the binding calculated as the ratio of kd/ka (Figure 4).
Figure 4 SPR kinetic analysis. […]
The analyte 9 was dialyzed in the running buffer (1% final DMSO concentration) and injected at different concentrations for 120 s onto the sensor chip at a constant flow rate of 50 μL/min. […] The equilibrium dissociation constant (KD) was determined by the ratio Koff/Kon. […]

In the case of `O=S(=O)(Nc1ccc(-c2ccccn2)cc1)c1ccc(Br)cc1` [Compound 9, 4-Bromo-N-(4-(pyridin-2-yl)phenyl)benzenesulfonamide], the kon worked out at 293000 M⁻¹ s⁻¹.

The record behind these values is publication PMC10353061 (ACS Pharmacology & Translational Science, 2023).
